Tests used:
[1] = system: calf thymus (CT) DNA; test: Thermal denaturation studies; type: binding; conditions: [PBD]:[DNA] molar ratio 1:5; CT-DNA 100 μM, ligand 20 μM; sodium phosphate buffer pH 7.00
Protocol: The DNA binding affinity of the C2-Fluoro substituted piperazine linked pyrrolo[2,1c][1,4]benzodiazepine dimers were subjected to thermal denaturation studies using calf thymus (CT) DNA (Jones, G. B.; Davey, C. L.; Jenkins, T. C.; Kamal, A.; Kneale, G. G.; Neidle, S.; Webster, G. D.; Thurston, D. E. Anti-cancer Drug Des. 1990, 5, 249. McConnaughie, A. W.; Jenkins, T. C. J. Med. Chem. 1995, 38, 3488). The studies for these compounds (IXa-f) were carried out by DNA/ligand molar ratio is 1:5 the increase in the helix melting temperature (ΔTm) for each compound was examined at 0 h. […] Data for DSB-120 and SJG-136 are included in Table-3 for comparison. The synthetic DC-81 dimer (DSB-120) gives a ΔTm 10.2° C. and SJC-136 gives a […]Tm of 25° C. under identical experimental condition.

[2] = system: sixty human tumor cells derived from nine cancer types; test: NCI in vitro anticancer screen (SRB), whole panel; type: cell-based; conditions: human tumor cell lines; 48 h drug exposure, SRB
Protocol: (§1) The above compounds were evaluated for in vitro anticancer activity against sixty human tumor cells derived from nine cancer types (leukemia, non small cell cancer, colon cancer CNS cancer, melanoma, ovarian cancer renal cancer, prostate cancer and breast cancer) as per NCI protocol. For each compound, dose response curves for each cell line were measured at a minimum of five concentrations at 10-fold dilution. A protocol of 48 h continuous drug exposure was used, and a sulforhodamine B (SRB) protein assay was used to estimate cell viability or growth. The concentration causing 50% cell growth inhibition (GI50), total cell growth inhibition (TGI, 0% growth) and 50% cell death (LC-50% growth) compared with the control was calculated.

[3] = system: SK-MEL-28; test: NCI in vitro anticancer screen (SRB); type: cell-based, human; conditions: Melanoma, 48 h exposure
Protocol: as §1

[4] = system: HT29; test: NCI in vitro anticancer screen (SRB); type: cell-based, human; conditions: Colon, 48 h exposure
Protocol: as §1

[5] = system: SK-OV-3; test: NCI in vitro anticancer screen (SRB); type: cell-based, human; conditions: Ovarian, 48 h exposure
Protocol: as §1

[6] = system: A549/ATCC; test: NCI in vitro anticancer screen (SRB); type: cell-based, human; conditions: Non-small cell lung, 48 h exposure
Protocol: as §1

[7] = system: UACC-62; test: NCI in vitro anticancer screen (SRB); type: cell-based, human; conditions: Melanoma, 48 h exposure
Protocol: as §1

[8] = system: COLO 205; test: NCI in vitro anticancer screen (SRB); type: cell-based, human; conditions: Colon, 48 h exposure
Protocol: as §1

[9] = system: OVCAR-3; test: NCI in vitro anticancer screen (SRB); type: cell-based, human; conditions: Ovarian, 48 h exposure
Protocol: as §1

[10] = system: HCC-2998; test: NCI in vitro anticancer screen (SRB); type: cell-based, human; conditions: Colon, 48 h exposure
Protocol: as §1

[11] = system: 786-0; test: NCI in vitro anticancer screen (SRB); type: cell-based, human; conditions: Renal, 48 h exposure
Protocol: as §1

[12] = system: KM12; test: NCI in vitro anticancer screen (SRB); type: cell-based, human; conditions: Colon, 48 h exposure
Protocol: as §1

[13] = system: BT-549; test: NCI in vitro anticancer screen (SRB); type: cell-based, human; conditions: Breast, 48 h exposure
Protocol: as §1

[14] = system: PC-3; test: NCI in vitro anticancer screen (SRB); type: cell-based, human; conditions: Prostate, 48 h exposure
Protocol: as §1

[15] = system: HS 578T; test: NCI in vitro anticancer screen (SRB); type: cell-based, human; conditions: Breast, 48 h exposure
Protocol: as §1

[16] = system: T-47D; test: NCI in vitro anticancer screen (SRB); type: cell-based, human; conditions: Breast, 48 h exposure
Protocol: as §1

[17] = system: SF-539; test: NCI in vitro anticancer screen (SRB); type: cell-based, human; conditions: CNS, 48 h exposure
Protocol: as §1

[18] = system: SF-268; test: NCI in vitro anticancer screen (SRB); type: cell-based, human; conditions: CNS, 48 h exposure
Protocol: as §1

[19] = system: TK-10; test: NCI in vitro anticancer screen (SRB); type: cell-based, human; conditions: Renal, 48 h exposure
Protocol: as §1

[20] = system: OVCAR-8; test: NCI in vitro anticancer screen (SRB); type: cell-based, human; conditions: Ovarian, 48 h exposure
Protocol: as §1

[21] = system: LOX IMVI; test: NCI in vitro anticancer screen (SRB); type: cell-based, human; conditions: Melanoma, 48 h exposure
Protocol: as §1

[22] = system: MCF7; test: NCI in vitro anticancer screen (SRB); type: cell-based, human; conditions: Breast, 48 h exposure
Protocol: as §1

[23] = system: IGROV1; test: NCI in vitro anticancer screen (SRB); type: cell-based, human; conditions: Ovarian, 48 h exposure
Protocol: as §1

[24] = system: OVCAR-5; test: NCI in vitro anticancer screen (SRB); type: cell-based, human; conditions: Ovarian, 48 h exposure
Protocol: as §1

[25] = system: HOP-62; test: NCI in vitro anticancer screen (SRB); type: cell-based, human; conditions: Non-small cell lung, 48 h exposure
Protocol: as §1

[26] = system: NCI-H522; test: NCI in vitro anticancer screen (SRB); type: cell-based, human; conditions: Non-small cell lung, 48 h exposure
Protocol: as §1

[27] = system: SN12C; test: NCI in vitro anticancer screen (SRB); type: cell-based, human; conditions: Renal, 48 h exposure
Protocol: as §1

[28] = system: SW-620; test: NCI in vitro anticancer screen (SRB); type: cell-based, human; conditions: Colon, 48 h exposure
Protocol: as §1

[29] = system: NCI-H322M; test: NCI in vitro anticancer screen (SRB); type: cell-based, human; conditions: Non-small cell lung, 48 h exposure
Protocol: as §1

[30] = system: CAKI-1; test: NCI in vitro anticancer screen (SRB); type: cell-based, human; conditions: Renal, 48 h exposure
Protocol: as §1

[31] = system: A498; test: NCI in vitro anticancer screen (SRB); type: cell-based, human; conditions: Renal, 48 h exposure
Protocol: as §1

[32] = system: HL-60(TB); test: NCI in vitro anticancer screen (SRB); type: cell-based, human; conditions: Leukemia, 48 h exposure
Protocol: as §1

[33] = system: HOP-92; test: NCI in vitro anticancer screen (SRB); type: cell-based, human; conditions: Non-small cell lung, 48 h exposure
Protocol: as §1

[34] = system: HCT-116; test: NCI in vitro anticancer screen (SRB); type: cell-based, human; conditions: Colon, 48 h exposure
Protocol: as §1

[35] = system: RPMI-8226; test: NCI in vitro anticancer screen (SRB); type: cell-based, human; conditions: Leukemia, 48 h exposure
Protocol: as §1

[36] = system: DU-145; test: NCI in vitro anticancer screen (SRB); type: cell-based, human; conditions: Prostate, 48 h exposure
Protocol: as §1

[37] = system: SR; test: NCI in vitro anticancer screen (SRB); type: cell-based, human; conditions: Leukemia, 48 h exposure
Protocol: as §1

[38] = system: ACHN; test: NCI in vitro anticancer screen (SRB); type: cell-based, human; conditions: Renal, 48 h exposure
Protocol: as §1

[39] = system: SK-MEL-5; test: NCI in vitro anticancer screen (SRB); type: cell-based, human; conditions: Melanoma, 48 h exposure
Protocol: as §1

[40] = system: SNB-75; test: NCI in vitro anticancer screen (SRB); type: cell-based, human; conditions: CNS, 48 h exposure
Protocol: as §1

[41] = system: MOLT-4; test: NCI in vitro anticancer screen (SRB); type: cell-based, human; conditions: Leukemia, 48 h exposure
Protocol: as §1

[42] = system: NCI-H460; test: NCI in vitro anticancer screen (SRB); type: cell-based, human; conditions: Non-small cell lung, 48 h exposure
Protocol: as §1

[43] = system: M14; test: NCI in vitro anticancer screen (SRB); type: cell-based, human; conditions: Melanoma, 48 h exposure
Protocol: as §1

[44] = system: RXF 393; test: NCI in vitro anticancer screen (SRB); type: cell-based, human; conditions: Renal, 48 h exposure
Protocol: as §1

[45] = system: CCRF-CEM; test: NCI in vitro anticancer screen (SRB); type: cell-based, human; conditions: Leukemia, 48 h exposure
Protocol: as §1

[46] = system: K-562; test: NCI in vitro anticancer screen (SRB); type: cell-based, human; conditions: Leukemia, 48 h exposure
Protocol: as §1

[47] = system: U251; test: NCI in vitro anticancer screen (SRB); type: cell-based, human; conditions: CNS, 48 h exposure
Protocol: as §1

[48] = system: SNB-19; test: NCI in vitro anticancer screen (SRB); type: cell-based, human; conditions: CNS, 48 h exposure
Protocol: as §1

[49] = system: MALME-3M; test: NCI in vitro anticancer screen (SRB); type: cell-based, human; conditions: Melanoma, 48 h exposure
Protocol: as §1

[50] = system: MDA-MB-435; test: NCI in vitro anticancer screen (SRB); type: cell-based, human; conditions: Breast, 48 h exposure
Protocol: as §1

COc1cc2c(cc1OCCCN1CCN(CCCOc3cc4c(cc3OC)C(=O)N3CC(F)(F)C[C@H]3C=N4)CC1)N=C[C@@H]1CC(F)(F)CN1C2=O [IXd, 1,1′-{[(bispropane-1,N-diyl)piperazine]dioxy}bis[(11aS)-2-2-difluoro-7-methoxy-1,2,3,11a-tetrahydro-5H-pyrrolo[2,1-c][1,4]benzodiazepine-5-one]]
ΔTm after incubation at 37° C. for 0 h [1]: 11.0 °C
Log10 GI50 mean graph midpoint (MG_MID) [2]: −5.41
Log10 LC50 mean graph midpoint (MG_MID) [2]: −4.2
Log10 TGI mean graph midpoint (MG_MID) [2]: −4.79
GI50 [3]: 4.28 µM
GI50 [4]: 3.61 µM
GI50 [5]: 8.64 µM
GI50 [6]: 7.3 µM
GI50 [7]: 3.05 µM
GI50 [8]: 3.09 µM
GI50 [9]: 3.55 µM
GI50 [10]: 5.4 µM
GI50 [11]: 3.17 µM
GI50 [12]: 4.1 µM
GI50 [13]: 3.25 µM
GI50 [14]: 3.06 µM
GI50 [15]: 2.94 µM
GI50 [16]: 1.38 µM
GI50 [17]: 3 µM
GI50 [18]: 3.57 µM
GI50 [19]: 4.38 µM
GI50 [20]: 6.3 µM
GI50 [21]: 1.89 µM
GI50 [22]: 2.09 µM
GI50 [23]: 1.92 µM
GI50 [24]: 3.83 µM
GI50 [25]: 3.17 µM
GI50 [26]: 1.14 µM
GI50 [27]: 4.05 µM
GI50 [28]: 2.61 µM
GI50 [29]: 1.96 µM
GI50 [30]: 3.31 µM
GI50 [31]: 2.43 µM
GI50 [32]: 1.18 µM
GI50 [33]: 6.14 µM
GI50 [34]: 3.59 µM
GI50 [35]: 2.2 µM
GI50 [36]: 3.63 µM
GI50 [37]: 0.8 µM
GI50 [38]: 5.64 µM
GI50 [39]: 1.86 µM
GI50 [40]: 5.52 µM
GI50 [41]: 2.02 µM
GI50 [42]: 2.6 µM
GI50 [43]: 3.25 µM
GI50 [44]: 2.14 µM
GI50 [45]: 0.9 µM
GI50 [46]: 1.7 µM
GI50 [47]: 3.36 µM
GI50 [48]: 4.08 µM
GI50 [49]: 2.8 µM
GI50 [50]: 1.95 µM

Source: patent US8383618B2, “C2-fluoro substituted piperazine linked pyrrolo[2,1-C][1,4] benzodiazepine dimers and a process for the preparation thereof” (Council of Scientific & Industrial Research, priority 2008, dated 2013)
